Key:
Assay in all cases: antibiogram by diffusion on Mueller-Hinton agar with antibiotic wafers
Type in all cases: cell-based
[1] = test system: Enterobacter aerogenes; details: Table C1, six wafers, disk loads of Table B
Protocol: (§1) The inoculum was prepared by making a suspension of bacteria directly from colonies put into solution in tubes of sterile water so that the solution presented accurate opacity as determined with a spectrophotometer equivalent to the opacity of a 0.5 standard in the McFarland range. This bacterial suspension concentration is standardized since a more concentrated inoculum would lead to smaller diameters for the inhibition zone, and vice versa.
(§2) The inoculum corresponds to concentrations of about 10^8 CFU/mL for Escherichia coli, Klebsiella pneumoniae, Proteus mirabilis, Klebsiella oxytoca, Enterobacter cloacea, Enterobacter aerogenes, Entercoccus faecalis, Pseudomonas aeruginosa, Staphylococcus aureus, and Staphylococcus epidermidis. These are the ten species bacteria that are encountered the most frequently in human pathologies.
(§3) 1.2) The bacterial sample was deposited on a solid culture medium in a petri dish having a diameter of 90 mm or in a square dish having a side of 120 mm, the medium being constituted by a Mueller-Hinton agar specific for (EUCAST) antibiograms. Ideally, it should be used in the 15 minutes (min) following preparation of the suspension.
(§4) Seeding was done by the method of diffusion on an agar medium by flooding in which excess bacterial suspension was added to the Mueller-Hinton agar. After homogenizing, excess liquid was discarded in order to avoid over-inoculating the dishes. It is necessary to wait beforehand for the surface of the agar to be dry in order to eliminate any trace of moisture encouraging bacterial invasion.
(§5) The disks of the antibiotic wafers were deposited within 15 min after inoculating the agar. The antibiotic impregnated disks were deposited using an automatic dispenser that placed the disks firmly on the surface of the inoculated and dried agar. The number of disks deposited per dish was limited because of inhibition zone overlap and in order to limit interference between antibiotics. It is important for the inhibition diameters to be measurable. The antibiograms were then incubated at 37° C. for 18 hours (h) to 24 h.
(§6) The antibiotic wafers were made of high quality absorbent paper with a diameter of 6 mm and they were impregnated with antibiotics at concentrations in the range 1 micrograms (μg) to 300 μg approximately, depending on the antibiotic.
(§7) In the examples below, reference disks were used as sold by the suppliers i2a (Montpellier, France), BD (Becton Dickinson, USA), Bio-Rad (Hercules, USA), Biomerieux (Marcy l′Etoile, France) containing the following antibiotics and carrying the following codes and the following doses: AMX (amoxicillin) 25 μg: AMC (amoxicillin-clavulanic acid) 20 μg-10 μg; GM for gentamicin, 15 μg; SXT (trimethoprim-sulfamethoxazole) 1.25/23.75 μg; TIC (ticarcillin) 75 μg; TCC (ticarcillin-clavulanic acid) […]; TZP (piperacillin-tazobactam) 75/10 μg; CAZ (ceftazidime) 30 μg; IMP or IPM (imipeneme) 10 μg; COL (colistin) 50 μg; FOX (cefoxitine) 30 μg; VAN (vancomycin) 30 μg; TEC (teicoplanin) 30 μg; CLI or DA (clindamycin) 2 μg; CRO (ceftriaxone) 30 μg; CIP (ciprofloxacin) 5 μg; OFX (ofloxacin) 5 μg; CTX (cefotaxime) 5 μg; AN or AK (amikacin) 30 μg; TM (tobramycin) 10 μg; FOX (cefoxitine) 30 μg; ATM (aztreonam) 30 μg; ERT (ertapenem) 10 μg; FF (fosfomycin) 200 μg; DO (doxycycline) 30 μg; K (kanamycin) 1000 μg; L (lincomycin) 15 μs; LNZ (linezolid) 10 μg; AN (nalidixic acid) 30 μg; NOR (norfloxacin) 10 μg; PT (pristinamycin) 15 μg; RA (rifampicin) 5 μg; and E (erythromycin) 15 μg.

[2] = test system: Enterobacter cloacea; details: Table C1, six wafers, disk loads of Table B
Protocol: as §1, §2, §3, §4, §5, §6, §7

[3] = test system: Escherichia coli; details: for resistant (I/R) or sensitive (S): Table C2, square dish; for resistance (I, R) or sensitivity (S): Table C1, disk loads of Table B
Protocol: as §1, §2, §3, §4, §5, §6, §7

[4] = test system: Klebsiella oxytoca; details: Table C1; K. oxytoca phenotype Wild; six wafers, disk loads of Table B
Protocol: as §1, §2, §3, §4, §5, §6, §7

[5] = test system: Klebsiella pneumoniae; details: for resistance (I, R) or sensitivity (S): Table C1, six wafers, disk loads of Table B; for resistant (I/R) or sensitive (S): Table C2, sixteen wafers, square dish
Protocol: as §1, §2, §3, §4, §5, §6, §7

[6] = test system: Entercoccus faecalis; details: Table C1, six wafers, disk loads of Table B
Protocol: as §1, §2, §3, §4, §5, §6, §7

[7] = test system: Staphylococcus aureus; details: for resistance (I, R) or sensitivity (S): Table C1, six wafers, disk loads of Table B; for resistant (I/R) or sensitive (S): Table C2, sixteen wafers, square dish
Protocol: as §1, §2, §3, §4, §5, §6, §7

[8] = test system: Staphylococcus epidermidis; details: Table C1, six wafers, disk loads of Table B
Protocol: as §1, §2, §3, §4, §5, §6, §7

[9] = test system: Proteus mirabilis; details: Table C1, six wafers, disk loads of Table B
Protocol: as §1, §2, §3, §4, §5, §6, §7

[10] = E. coli phenotype Cephalosporinase + R to fluoroquinolones + R to cotrimoxazole + partial R to aminosides, sixteen wafers
[11] = E. coli phenotype Hl penicillinase + R to fluoroquinolones + R to cotrimoxazole + partial R to aminosides, sixteen wafers
[12] = E. coli phenotype Wild, sixteen wafers in a rectangular grid
[13] = K. pneumoniae phenotype Cephalosporinase + R to aminosides + R to cotrimoxazole
[14] = S. aureus phenotype Methicillin resistant
[15] = S. aureus phenotype R to methicilline, R to aminosides, fluoroquinolones, to rifampicie, to macrolides and the like
[16] = S. epidermidis phenotype Methicillin resistant

Compound | resistant (I/R) or sensitive (S) [3, 10] | resistant (I/R) or sensitive (S) [3, 11] | resistant (I/R) or sensitive (S) [3, 12] | resistant (I/R) or sensitive (S) [5, 13] | resistant (I/R) or sensitive (S) ([5]; K. pneumoniae phenotype Wild) | resistance (I, R) or sensitivity (S) ([6]; E. faecalis phenotype Atypical) | resistance (I, R) or sensitivity (S) ([6]; E. faecalis phenotype Wild) | resistance (I, R) or sensitivity (S) [7, 14] | resistance (I, R) or sensitivity (S) ([7]; S. aureus phenotype Wild) | resistant (I/R) or sensitive (S) [7, 15] | resistant (I/R) or sensitive (S) ([7]; S. aureus phenotype Wild) | resistance (I, R) or sensitivity (S) [8, 16] | resistance (I, R) or sensitivity (S) ([8]; S. epidermidis phenotype Wild) | other results
colistin | S | S | S | S | S |  |  |  |  |  |  |  |  | resistance (I, R) or sensitivity (S) ([1]; E. aerogenes phenotype BSBL): S; resistance (I, R) or sensitivity (S) ([1]; E. aerogenes phenotype Wild): S; resistance (I, R) or sensitivity (S) ([2]; E. cloacae phenotype BSBL): S; resistance (I, R) or sensitivity (S) ([2]; E. cloacae phenotype Wild): S; resistance (I, R) or sensitivity (S) [4]: S; resistance (I, R) or sensitivity (S) ([5]; K. pneumoniae phenotype BSBL): S; resistance (I, R) or sensitivity (S) ([5]; K. pneumoniae phenotype Carbapenemase): S; resistance (I, R) or sensitivity (S) ([5]; K. pneumoniae phenotype Hl cephalosporinase): S; resistance (I, R) or sensitivity (S) ([5]; K. pneumoniae phenotype Hl penicillinase): S; resistance (I, R) or sensitivity (S) ([5]; K. pneumoniae phenotype Ll penicillinase): S; resistance (I, R) or sensitivity (S) ([5]; K. pneumoniae phenotype Wild): S
teicoplanin [TEC] |  |  |  |  |  | S | S | S | S | S | S | S | S | 
CO[C@@]1(NC(=O)Cc2cccs2)C(=O)N2C(C(=O)O)=C(COC(N)=O)CS[C@@H]21 [FOX, cefoxitine] | S | S | S | S | S |  |  | R | S | R | S | R | S | 
gentamicin | R | R | S | R | R | S | S | S | S | R | S | S | S | 
trimethoprim-sulfamethoxazole (cotrimoxazole) [SXT] | R | R | S | R | R |  |  | S | S | R | S | S | S | 
CCC[C@@H]1C[C@@H](C(=O)N[C@@H]([C@H]2O[C@H](SC)[C@H](O)[C@@H](O)[C@H]2O)[C@H](C)Cl)N(C)C1 [CLI, clindamycin] |  |  |  |  |  |  |  |  | S | R | S |  | S | 
CC1(C)S[C@@H]2[C@H](NC(=O)[C@H](N)c3ccc(O)cc3)C(=O)N2[C@H]1C(=O)O [AMX, amoxicillin] | R | R | S | R | R | R | S |  |  |  |  |  |  | synergy zone between two antibiotic wafers placed side by side ([3]; E. coli cephalosporinase phenotype (FIGS. 2D, 2E)): absence of a zone of synergy; synergy zone between two antibiotic wafers placed side by side ([3]; E. coli strain of BSBL phenotype, champagne-cork shaped inhibition zone): presence of a zone of synergy; resistance (I, R) or sensitivity (S) ([3]; E. coli phenotype BSBL, six wafers): R; resistance (I, R) or sensitivity (S) ([3]; E. coli phenotype Carbapenemase, six wafers): R; resistance (I, R) or sensitivity (S) ([3]; E. coli phenotype Hl cephalosporinase, six wafers): R; resistance (I, R) or sensitivity (S) ([3]; E. coli phenotype Hl penicillinase, six wafers): R; resistance (I, R) or sensitivity (S) ([3]; E. coli phenotype Inhibitor resistant penicillinase, six wafers): R; resistance (I, R) or sensitivity (S) ([3]; E. coli phenotype Ll penicillinase, six wafers): R; resistance (I, R) or sensitivity (S) ([3]; E. coli phenotype Wild, six wafers in a circle): S; resistance (I, R) or sensitivity (S) ([9]; P. mirabilis phenotype Hl cephalosporinase): R; resistance (I, R) or sensitivity (S) ([9]; P. mirabilis phenotype Hl penicillinase): R; resistance (I, R) or sensitivity (S) ([9]; P. mirabilis phenotype Inhibitor resistant penicillinase): R; resistance (I, R) or sensitivity (S) ([9]; P. mirabilis phenotype Ll penicillinase): R; resistance (I, R) or sensitivity (S) ([9]; P. mirabilis phenotype Wild): S
CN[C@H](CC(C)C)C(=O)N[C@H]1C(=O)N[C@@H](CC(N)=O)C(=O)N[C@H]2C(=O)N[C@H]3C(=O)N[C@H](C(=O)N[C@H](C(=O)O)c4cc(O)cc(O)c4-c4cc3ccc4O)[C@H](O)c3ccc(c(Cl)c3)Oc3cc2cc(c3O[C@@H]2O[C@H](CO)[C@@H](O)[C@H](O)[C@H]2O[C@H]2C[C@](C)(N)[C@H](O)[C@H](C)O2)Oc2ccc(cc2Cl)[C@H]1O [VAN, vancomycin] |  |  |  |  |  | S | S | S | S | S | S | S | S | 

— patent publication US10837044B2, “Automated method for analyzing and interpreting an antimicrobial susceptibility” (FONDATION MEDITERRANEE INFECTION, priority 2014, dated 2020)
